In patent US7767665B2, “1,3-benzothiazinone derivatives and use thereof” (Takeda Pharmaceutical Company Limited, priority 2001, dated 2010):

Assays:
[1] = tested on: primary heart muscle cells from newborn rats; assay: Inhibitory activity on heart muscle cell apoptosis (serum-free culture, viable cell number by WST-8); type: cell-based, Wister rats; settings: Rattus norvegicus, 96 h; mean of three independent experiments; concentration required to increase the mean viable cell number by 50% as compared with that in the absence of test compounds; serum-free Medium 199, 4 days
From the text: Inhibitory Activity on Heart Muscle Cell Apoptosis
Newborn rats (within 1 day afterbirth) were obtained from pregnant Wister rats purchased from Charles River, anesthetized under ether, and sterilized with 70% ethanol, and then their hearts were excised with tweezers. The excised hearts were washed with a phosphate-buffered physiological saline (T900; Takara) and cut into pieces with surgical scissors. These tissue pieces were washed 4 to 5 times with a phosphate-buffered physiological saline to remove a majority of blood-derived non-heart muscle cells. To the tissue pieces derived from 10 newborns, 5 ml of enzyme solution (1.25 mg trypsin (Difco) and 0.25 mg collagenase (Sigma) per ml of phosphate-buffered saline (PBS)) was added and the mixture was stirred with a stirrer at 37° C. for 15 minutes. Another 2.5 ml enzyme solution was then added twice repeatedly at a 15-minutes interval. Then, Medium 199 (Gibco) containing 10% fetal calf serum (Biowiker) was added in a half volume of the enzyme solution to terminate the enzyme reaction. The cells were filtered through a Cell Strainer (Falcon) and then centrifuged at 400×g for 5 minutes, whereby the cells were collected.
The cells thus collected from 10 newborns were suspended in 50 ml Medium 199 containing 10% fetal calf serum, plated onto 100 mm Petri dishes (Iwaki) in a volume of 10 ml/dish and cultured for 1 hour in a CO2 incubator set at 5% CO2 and 37° C. The cells were then recovered, filtered through a Cell Strainer and centrifuged at 400×g for 5 minutes to collect the primary heart muscle cells derived from newborn rats.
Then, the heart muscle cells from 10 newborn rats were suspended in 2 ml low-isotonic solution (prepared by dissolving 8.29 g NH4Cl, 1.0 g KHCO3, 37 mg EDTA/2Na (ethylenediaminetetraacetic acid disodium) (Dojindo) in 1 L of water) and left for 3 minutes to disrupt erythrocytes. After 10 ml Medium 199 containing 10% fetal calf serum was added thereto, the primary heart muscle cells from newborn rats were collected by centrifugation at 400×g for 5 minutes. The cells were suspended in Medium 199 containing 10% fetal calf serum and then filtered through a cell strainer. After 0.3% trypan blue was added to, and mildly mixed with, an aliquot of the resulting cell suspension, the number of heart muscle cells was counted on an erythrocyte counting plate.
The primary heart muscle cells from newborn rats were suspended at a density of 3×10^6 cells/ml in Medium 199 containing 10% fetal calf serum, put onto a 96-well plate in a volume of 0.1 ml/well, and then cultured in a CO2 incubator set at 5% CO2 and 37° C. After the plate was stirred with a micromixer (Taiyo Kagaku Kogyo), the medium was exchanged 3 times with serum-free Medium 199, and then test compounds were added thereto. The cells were cultured for additional 4 days to induce apoptosis. Then, fetal calf serum was added thereto at a concentration of 10%, and the cells were further cultured for about 17 hours in a CO2 incubator set at 5% CO2 and 37° C. Finally, the number of viable cells was determined with Cell Counting Kit (Dojindo) using WST-8 (2-(2-methoxy-4-nitrophenyl)-3-(4-nitrophenyl)-5-(2,4-disulfophenyl)-2H-tetrazolium, monosodium salt) as the coloring substrate to determine the inhibition of the heart muscle cell apoptosis.
The above-mentioned experiment was triplicated in an independent manner.
The Mean minimal effective concentration (±SD) was shown for each test compound (Compounds 1 to 5 obtained in Reference Examples) in Table 1. In Table 1, the minimal effective concentration is defined as the concentration required to increase the mean viable cell number by 50% as compared with that in the absence of test compounds.

melting point | SMILES | minimal effective concentration [1] [µM]
200 to 202.2 °C | COc1ccc2c(=O)nc(-c3ccccn3)sc2c1 [Example 54, 7-methoxy-2-(2-pyridyl)-4H-1,3-benzothiazine-4-one] | 0.037
248.2 to 251.7 °C | O=c1nc(-c2cc[n+]([O-])cc2)sc2ccccc12 [Example 55] | 0.016
226 to 226.1 °C | COc1cccc(-c2nc(=O)c3ccccc3s2)n1 [Example 56, 2-(6-Methoxy-2-pyridyl)-4H-1,3-benzothiazine-4-one] | 0.039
240.9 to 241 °C | O=c1nc(-c2cccc(OCc3ccccc3)n2)sc2ccccc12 [Example 57, 2-[6-(Benzyloxy)-2-pyridyl]-4H-1,3-benzothiazine-4-one] | 0.033
138.3 to 140 °C | CCCOc1cccc(-c2nc(=O)c3ccccc3s2)n1 [Example 58, 2-(6-Propoxy-2-pyridyl)-4H-1,3-benzothiazine-4-one] | 0.091
174.8 to 175.4 °C | CCC[S+]([O-])c1cccc(-c2nc(=O)c3ccccc3s2)n1 (centres unmarked) [Example 60, 2-(6-Propylsulfinyl-2-pyridyl)-4H-1,3-benzothiazine-4-one] | 0.019
173.8 to 174.5 °C | CCCS(=O)(=O)c1cccc(-c2nc(=O)c3ccccc3s2)n1 [Example 61, 2-(6-Propylsulfonyl-2-pyridyl)-4H-1,3-benzothiazine-4-one] | 0.01
228 to 228.2 °C | Cc1ccc([S+]([O-])c2cccc(-c3nc(=O)c4ccccc4s3)n2)cc1 (centres unmarked) [Example 63, 2-{6-[(4-Methylphenyl)sulfinyl]-2-pyridyl}-4H-1,3-benzothiazine-4-one] | 0.046
219.6 °C (dec.) | Cc1ccc(S(=O)(=O)c2cccc(-c3nc(=O)c4ccccc4s3)n2)cc1 [Example 64, 2-{6-[(4-Methylphenyl)sulfonyl]-2-pyridyl}-4H-1,3-benzothiazine-4-one] | 0.052
159.6 to 159.8 °C | COCOCc1cccc(-c2nc(=O)c3ccccc3s2)n1 [Example 65, 2-[(6-Methoxymethoxymethyl)-2-pyridyl]-4H-1,3-benzothiazine-4-one] | 0.045
141 to 142 °C | O=C(O)CCOCCCc1cccc(-c2nc(=O)c3ccccc3s2)n1 [Example 67, 3-{3-[6-(4-Oxo-4H-1,3-benzothiazin-2-yl)-2-pyridyl]propoxy}propionic acid] | 0.031
173.4 to 173.5 °C | CSc1cc(-c2nc(=O)c3ccccc3s2)ccn1 [Example 68, 2-(2-Methylthio-4-pyridyl)-4H-1,3-benzothiazine-4-one] | 0.018
148.8 to 150.5 °C | COc1cc(-c2nc(=O)c3ccccc3s2)ccn1 [Example 70, 2-(2-Methoxy-4-pyridyl)-4H-1,3-benzothiazine-4-one] | 0.017
157 to 158 °C | O=c1nc(-c2ccnc(N3CCOCC3)c2)sc2ccccc12 [Example 73, 2-(2-Morpholinyl-4-pyridyl)-4H-1,3-benzothiazine-4-one] | 0.024
177.8 to 178.4 °C | O=c1nc(-c2ccnc(Cl)c2)sc2ccccc12 [Example 76, 2-(2-Chloro-4-pyridyl)-4H-1,3-benzothiazine-4-one] | 0.036
137 to 137.9 °C | COC(=O)c1ccccc1Sc1cc(-c2nc(=O)c3ccccc3s2)ccn1 [Example 77, methyl 2-{[4-(4-oxo-4H-1,3-benzothiazin-2-yl)-2-pyridyl]thio}benzoate] | 0.039

melting point | SMILES | minimal effective concentration [1] [µM]
243.2 to 243.5 °C | O=C(O)CCc1cccc(-c2nc(=O)c3ccccc3s2)n1 [Example 79, 3-[6-(4-Oxo-4H-1,3-benzothiazin-2-yl)-2-pyridyl]propionic acid] | 0.061
185 to 185.5 °C | CC(C)(C)OC(=O)c1cccc(-c2nc(=O)c3ccccc3s2)n1 [Example 80, tert-Butyl 6-(4-oxo-4H-1,3-benzothiazin-2-yl)-2-pyridinecarboxylate] | 0.035
260.2 to 260.5 °C | O=C(O)c1cccc(-c2nc(=O)c3ccccc3s2)n1 [Example 81, 6-(4-Oxo-4H-1,3-benzothiazin-2-yl)-2-pyridinecarboxylic acid] | 0.012
242.6 to 244.2 °C | O=C(NCC(F)(F)F)c1cccc(-c2nc(=O)c3ccccc3s2)n1 [Example 82, 6-(4-Oxo-4H-1,3-benzothiazin-2-yl)-N-(2,2,2-trifluoroethyl)-2-pyridinecarboxamide] | 0.011
175.5 to 176.7 °C | COCCNC(=O)c1cccc(-c2nc(=O)c3ccccc3s2)n1 [Example 83, N-(2-Methoxyethyl)-6-(4-oxo-4H-1,3-benzothiazin-2-yl)-2-pyridinecarboxamide] | 0.027
175.8 to 177 °C | O=c1nc(-c2ccccn2)sc2cc(C(F)(F)F)ccc12 [Example 85, 2-(2-Pyridyl)-7-trifluoromethyl-4H-1,3-benzothiazine-4-one] | 0.04
145.2 to 146.6 °C | O=C(O)CCOCCCc1ccc(-c2nc(=O)c3ccccc3s2)nc1 [Example 99, 3-{3-[6-(4-Oxo-4H-1,3-benzothiazin-2-yl)-3-pyridyl]propoxy}propionic acid] | 0.043
174.5 to 175.3 °C | CN(C)/C=N/S(=O)(=O)CC(C)(C)COc1cccc(-c2nc(=O)c3ccccc3s2)n1 [Example 100, N,N-(Dimethylaminomethylene)-2,2-dimethyl-3-{[6-(4-oxo-4H-1,3-benzothiazin-2-yl)-2-pyridyl]oxy}-1-propanesulfonamide] | 0.036
153.8 to 153.9 °C | O=C(O)CCOCCCc1ccnc(-c2nc(=O)c3ccccc3s2)c1 [Example 102, 3-[3-[2-(4-Oxo-4H-1,3-benzothiazin-2-yl)-4-pyridyl]propoxy]propanoic acid] | 0.036
80 to 81.6 °C | CCCCN(C)C(=O)c1cccc(-c2nc(=O)c3ccccc3s2)n1 [Example 103, N-Butyl-N-methyl-6-(4-oxo-4H-1,3-benzothiazin-2-yl)-2-pyridinecarboxamide] | 0.042
232 to 234 °C | O=C(c1cccc(-c2nc(=O)c3ccccc3s2)n1)N1CCCC1 [Example 104] | 0.019
194 to 194.3 °C | CCN(CC)C(=O)c1cccc(-c2nc(=O)c3ccccc3s2)n1 [Example 105, N,N-Diethyl-6-(4-oxo-4H-1,3-benzothiazin-2-yl)-2-pyridinecarboxamide] | 0.028
145.1 to 145.4 °C | CC(C)(C)OC(=O)NCCCCCCNC(=O)c1cccc(-c2nc(=O)c3ccccc3s2)n1 [Example 106, tert-Butyl [[[6-(4-oxo-4H-1,3-benzothiazin-2-yl)-2-pyridyl]carbonyl]amino]hexylcarbamate] | 0.052
191.5 to 192.9 °C | CN(C(=O)c1cccs1)c1cccc(-c2nc(=O)c3ccccc3s2)n1 [Example 111, N-Methyl-N-[6-(4-oxo-4H-1,3-benzothiazin-2-yl)-2-pyridyl]-2-thiophenecarboxamide] | 0.037
186.2 to 187.2 °C | CN(C(=O)c1ccco1)c1cccc(-c2nc(=O)c3ccccc3s2)n1 [Example 112, N-Methyl-N-[6-(4-oxo-4H-1,3-benzothiazin-2-yl)-2-pyridyl]-2-furamide] | 0.051
